Assays:
Test in all cases: relative viability (nuclei count vs DMSO), 5 days (fraction); higher = more cells survive
[1] = compound: CS(=O)(=O)c1ccc(C(=O)Nc2ccc(Cl)c(-c3ccccn3)c2)c(Cl)c1 [Vismodegib] + Nc1nc2[nH]cc(CCc3ccc(C(=O)N[C@@H](CCC(=O)O)C(=O)O)cc3)c2c(=O)[nH]1 [Pemetrexed] (partner 0.2 µM)
In short: (§1)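 A single step with final 0.05% Triton X-100, 1% formaldehyde and 1 ug/ml Hoechst fixed the cells and stained nuclei 5 days after treatment. Lung cancer cell lines in 1536-well plates had been treated by pin tool the day after seeding with one drug alone or a fixed anchor-drug dose plus five library-drug doses (not always all listed) in √10 steps, and nuclei were counted on 4× images. Relative viability is the ratio of nuclei in treated wells to nuclei in vehicle wells, taken as the median of duplicate plates.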

[2] = compound: N#CC[C@H](C1CCCC1)n1cc(-c2ncnc3[nH]ccc23)cn1 [Ruxolitinib] + COc1cccc2cc(-c3nc([C@H]4CC[C@H](C(=O)O)CC4)n4ncnc(N)c34)[nH]c12 [OSI-027] (partner 0.5 µM)
In short: as §1

[3] = compound: CS(=O)(=O)c1ccc(-c2cnc(N)c(C(=O)Nc3ccccc3)n2)cc1 [VE-821] + CC(C)C[C@H](NC(=O)[C@H](Cc1ccccc1)NC(=O)c1cnccn1)B(O)O [Bortezomib] (partner 0.002 µM)
In short: as §1

[4] = compound: CS(=O)(=O)c1ccc(-c2cnc(N)c(C(=O)Nc3ccccc3)n2)cc1 [VE-821] + C[C@]1(O)C[C@@H](c2nc(-c3ccc4ccc(-c5ccccc5)nc4c3)c3c(N)nccn32)C1 [Linsitinib] (partner 1 µM)
In short: as §1

| Cell Line | relative viability ([1]; first compound 0.08 µM) | relative viability ([1]; first compound 0.253 µM) | relative viability ([1]; first compound 0.8 µM) | relative viability ([1]; first compound 2.53 µM) | relative viability ([1]; first compound 8 µM) | relative viability ([2]; first compound 0.08 µM) | relative viability ([2]; first compound 0.253 µM) | relative viability ([2]; first compound 0.8 µM) | relative viability ([2]; first compound 2.53 µM) | relative viability ([2]; first compound 8 µM) | relative viability ([3]; first compound 0.08 µM) | relative viability ([3]; first compound 0.253 µM) | relative viability ([3]; first compound 0.8 µM) | relative viability ([3]; first compound 2.53 µM) | relative viability ([3]; first compound 8 µM) | relative viability ([4]; first compound 0.08 µM) | relative viability ([4]; first compound 0.253 µM) | relative viability ([4]; first compound 0.8 µM) | relative viability ([4]; first compound 2.53 µM) | relative viability ([4]; first compound 8 µM) |
| --- | --- | --- | --- | --- | --- | --- | --- | --- | --- | --- | --- | --- | --- | --- | --- | --- | --- | --- | --- | --- |
| ChaGo-K-1 | 0.256 | 0.256 | 0.255 | 0.265 | 0.263 | 0.698 | 0.436 | 0.544 | 0.524 | 0.545 | 1 | 1.01 | 1.24 | 0.989 | 0.812 | – | – | – | – | – |
| EBC-1 | – | – | – | – | – | – | – | – | – | – | 0.534 | 0.546 | 0.555 | 0.517 | 0.4 | 0.908 | 0.901 | 0.85 | 1.16 | 0.808 |
| EKVX | – | 0.334 | 0.359 | 0.402 | 0.387 | 0.661 | 0.641 | 0.486 | 0.632 | 0.733 | 1.06 | 1.11 | 1.02 | 1.21 | 0.912 | 1.2 | 0.893 | 0.643 | 0.932 | 0.681 |
| EMC-BAC-2 | 0.469 | 0.442 | 0.423 | 0.461 | 0.518 | 0.391 | 0.344 | 0.358 | 0.359 | 0.224 | 1.12 | 1.08 | 1.15 | 1.11 | 1.04 | 0.881 | 0.817 | 0.849 | 0.852 | 0.841 |
| EPLC-272H | 0.285 | 0.418 | 0.324 | 0.317 | 0.33 | 0.275 | 0.282 | 0.291 | 0.267 | 0.272 | 0.955 | 0.927 | 1.12 | 1.13 | 0.814 | 1.28 | 0.928 | 1.22 | 1.6 | 1.11 |
| H3255 | 0.56 | 0.57 | 0.532 | 0.485 | 0.542 | 0.371 | 0.492 | 0.624 | 0.591 | 0.585 | 0.799 | 0.882 | 0.813 | 0.853 | 0.906 | 1.08 | 1.05 | 0.914 | 1.06 | 0.982 |
| HARA | 0.243 | – | 0.303 | 0.263 | 0.242 | 0.727 | 0.372 | 0.601 | 0.416 | 0.481 | 1.4 | 1.07 | 1.22 | 1.23 | 1.05 | 1.03 | 1.02 | 0.931 | 0.972 | 0.702 |
| HCC-15 | 0.215 | 0.215 | 0.265 | 0.219 | 0.228 | 0.569 | 0.494 | 0.751 | 0.522 | 0.541 | 1.22 | 1.02 | 1.02 | 1.13 | 1.1 | 1.01 | 0.816 | 0.954 | 0.961 | 0.889 |
| HCC-44 | 0.663 | 0.629 | 0.616 | 0.638 | 0.677 | 0.537 | 0.426 | 0.634 | 0.457 | 0.333 | 1 | 0.908 | 0.98 | 1.01 | 0.975 | 0.72 | 0.685 | 0.485 | 0.81 | 0.769 |
